Reference: BindingDB's records for patent US11028085 (Nimbus Saturn, 2021)

Target: Mitogen-activated protein kinase kinase kinase kinase 1 (Homo sapiens, UniProt Q92918)
Assay: Biochemical Enzyme Assay
Procedure: HPK1 biochemical enzyme assay: HPK1 enzyme inhibition was measured using a microfluidic mobility shift assay. […] Test compounds were titrated in ten point curves (top final assay concentration […]), and preincubated with enzyme/substrate mix for 30 min prior to initiation of the reaction by addition of ATP (1 mM final concentration) and substrate ([…] final concentration; Carna Biosciences) diluted in assay buffer supplemented by MgCl2 (final assay concentration of 5 mM). Following 60 min incubation at RT, the reaction was terminated by addition of 60 µl/well termination buffer (Carna Biosciences) and signal determination using a Caliper EZ Reader (Perkin Elmer, UK).

Chain of Mitogen-activated protein kinase kinase kinase kinase 1 (Q92918 whole entry): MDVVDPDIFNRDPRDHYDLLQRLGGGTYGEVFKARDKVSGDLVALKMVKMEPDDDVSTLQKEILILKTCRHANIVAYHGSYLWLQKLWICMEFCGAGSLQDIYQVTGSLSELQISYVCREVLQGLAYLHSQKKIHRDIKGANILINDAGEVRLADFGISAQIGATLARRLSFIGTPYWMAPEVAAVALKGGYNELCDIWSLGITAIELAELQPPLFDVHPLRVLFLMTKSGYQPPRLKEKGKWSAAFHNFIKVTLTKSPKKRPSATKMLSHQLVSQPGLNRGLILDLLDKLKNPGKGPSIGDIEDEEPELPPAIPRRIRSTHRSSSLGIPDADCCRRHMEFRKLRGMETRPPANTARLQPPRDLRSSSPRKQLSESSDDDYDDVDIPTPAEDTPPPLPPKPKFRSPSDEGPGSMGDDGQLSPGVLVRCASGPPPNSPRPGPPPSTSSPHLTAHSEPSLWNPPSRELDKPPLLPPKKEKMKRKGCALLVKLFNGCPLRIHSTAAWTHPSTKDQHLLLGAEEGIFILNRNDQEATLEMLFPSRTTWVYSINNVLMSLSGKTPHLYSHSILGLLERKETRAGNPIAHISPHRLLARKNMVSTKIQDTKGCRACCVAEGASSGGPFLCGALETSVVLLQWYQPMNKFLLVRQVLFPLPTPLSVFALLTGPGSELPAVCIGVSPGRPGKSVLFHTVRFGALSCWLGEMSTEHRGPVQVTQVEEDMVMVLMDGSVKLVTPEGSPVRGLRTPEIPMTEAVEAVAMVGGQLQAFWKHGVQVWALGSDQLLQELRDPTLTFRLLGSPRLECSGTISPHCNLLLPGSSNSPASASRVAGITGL

In the case of `CCOc1c(C#N)cnn2c(-c3ccc(Nc4ccc(N5CCC(O)CC5)cn4)c4c3CNC4=O)cnc12` [US11028085, Compound I-185], the IC50 is reported as “in the range around 550 nM”.

`CN1CC(c2ccn3c(-c4ccc(Nc5ccc(N6CCC(O)CC6)cc5)c5c4CNC5=O)cnc3c2)C1` [US11028085, Compound I-411] was tested, and the IC50 was under 100 nM.
